Experimental findings from PubChem BioAssay AID602255 (Broad Institute, 2012) are described below.

The experiment deals with Golgi-associated PDZ and coiled-coil motif-containing protein (Homo sapiens) (UniProt Q9HD26). In words: CAL PDZ domain peptide-binding inhibitors, dose response, biochemical, fluorescence polarization, untagged CAL PDZ, dry powder (AID 602255). Conditions: CAL PDZ / TMR peptide fluorescence polarization, 1 h; for activity change, negative = inhibition: at 35 µM (top of the series). On the technique in general: Fluorescence polarisation rises when a labelled molecule tumbles more slowly, as on binding a larger partner.

What is called AC50 is the concentration giving half of the maximal activity seen.

Active and inactive are the calls of the source.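 How the source made its calls: active means falling polarization with an AC50 at most ten times the sample's highest valid dose; inconclusive means flat curve at 30 to 70% inhibition, or poor fit; inactive means rising signal, flat weak curves, or AC50 past limit.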 A value given as a limit tells only on which side of the number the result lay.

In the case of `O=S(=O)(Nc1ccc(O)c2ccccc12)c1ccccc1`, the “activity change, negative = inhibition” value was “inactive”.

Take `COc1ccc(S(=O)(=O)Nc2cc(SCC(=O)O)c(O)c3ccccc23)cc1`: the “activity change, negative = inhibition” value is “inactive”.

Turning to `O=C(O)CSc1cc(NS(=O)(=O)c2ccc(Br)cc2)c2ccccc2c1O`, the AC50 is > 35 µM (inactive).

`O=S(=O)(Nc1cc(Sc2ccccc2)c(O)c2ccccc12)c1ccc(Cl)cc1`: the “activity change, negative = inhibition” value is “inactive”.
